Target: T1, MCH receptor (Homo sapiens, UniProt Q99705)
T1 construct: expressed in transfected cells; host or cells: CHO cells
Assay: MCH Receptor Binding Assay
Conditions: membranes from CHO cells expressing the MCH receptor, [125I]-MCH, SPA; read-out: Activity Class (Ki)
Procedure: MCH Receptor Binding Assay:
Membranes from CHO cells expressing the MCH receptor were prepared by lysing cells with 5 mM HEPES for 15 min at 4C. Cell lysates were centrifuged ([…], 15 min) and the pellet was resuspended in 5 mM HEPES. For each 96-well plate (Microlite, Dynex Technologies), 1 mg of cell membranes were incubated with 10 mg of wheat germ agglutinin SPA beads (Amersham) for 5 min at 4 C in a volume of 10 ml of binding buffer (25 mM HEPES, 10 mM MGCl2, 10 mM NaCl, 5 mM MnCl2, 0.1% BSA). The membrane/bead mixture was centrifuged (1500×g, 3.5 min), the supernatant was aspirated, and the pellet was resuspended in 10 ml binding buffer. The centrifugation, aspiration and resuspension were then repeated. The membrane/bead mixture (100 μl) was then added to 96-well plates containing 50 μl of 500 pM [^125I]-MCH (NEN) and […] of the appropriate concentration of compound (4× the desired final concentration). Nonspecific binding was determined by including 1 μM MCH in the binding reaction. The binding reaction was incubated at room temperature for 2 h. Plates were then analyzed in a TOPCOUNT microplate scintillation counter (Packard). Data was analyzed and Ki values were determined using GraphPad Prism.

T1 sequence (Q99705 whole entry): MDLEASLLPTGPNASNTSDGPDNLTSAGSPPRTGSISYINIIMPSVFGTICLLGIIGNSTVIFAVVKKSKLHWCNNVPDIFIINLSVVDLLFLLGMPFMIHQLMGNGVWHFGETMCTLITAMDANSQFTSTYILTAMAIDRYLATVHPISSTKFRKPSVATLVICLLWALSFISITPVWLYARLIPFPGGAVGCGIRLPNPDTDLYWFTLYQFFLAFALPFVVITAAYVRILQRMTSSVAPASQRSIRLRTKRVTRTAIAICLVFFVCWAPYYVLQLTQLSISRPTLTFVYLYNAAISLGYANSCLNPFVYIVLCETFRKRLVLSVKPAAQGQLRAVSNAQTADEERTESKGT

## CN1CCN(CCCN(c2nc3cc(F)c(Cl)cc3n2C)[C@@H]2CC[C@]3(c4cccc(C#N)c4)CC23)CC1 (some centres unmarked) [Example 36]
  Ki: > 100 nM

## N#Cc1cccc([C@]23CC[C@@H](N(CC4CCNCC4)c4nc5cc(Cl)c(Cl)cc5[nH]4)CC2C3)c1 (some centres unmarked) [Example 22]
  Ki: < 10 nM

## CN1CCN(CCCN(c2nc3cc(Cl)c(Cl)cc3[nH]2)[C@@H]2CC[C@]3(c4ccc(C#N)cc4)C[C@H]23)CC1 [Example 35b]
  Ki: 10 to 30 nM

## CN1CCN(CCCN(c2nc3cc(Cl)c(F)cc3[nH]2)[C@@H]2CC[C@]3(c4cccc(C#N)c4)C[C@@H]3C2)CC1 [Example 8c]
  Ki: < 10 nM

## CN1CCN(CCCN(c2nc3cc(Cl)c(Cl)cc3[nH]2)[C@@H]2CC[C@]3(c4cccc(C#N)c4)C[C@H]23)CC1 [Example 30a]
  Ki: < 10 nM

## CS(=O)(=O)N1CCC(CN(c2nc3cc(Cl)c(Cl)cc3[nH]2)[C@@H]2CC[C@]3(c4cccc(C#N)c4)C[C@@H]3C2)CC1 [Example 16a]
  Ki: < 10 nM

## CN1CCN(CCCN(c2nc3cc(Cl)c(F)cc3[nH]2)[C@@H]2CC[C@]3(c4ccc(C#N)cc4)C[C@H]23)CC1 [Example 35c]
  Ki: < 10 nM

## CO/N=C/c1cccc([C@]23CC[C@@H](N(CCCN4CCN(C)CC4)c4nc5cc(F)c(F)cc5[nH]4)CC2C3)c1 (some centres unmarked) [Example 24]
  Ki: 10 to 30 nM

## CN1CCN(CCCN(c2nc3cc(F)c(F)cc3[nH]2)[C@@H]2CC[C@]3(c4cccc(CN5CC[C@@H](O)C5)c4)CC3C2)CC1 (some centres unmarked) [Example 10f]
  Ki: > 100 nM

## CN1CCN(CCCN(c2nc3cc(F)c(F)cc3[nH]2)[C@@H]2CC[C@]3(c4cccc(CN5CCCC5)c4)C[C@@H]3C2)CC1 [Example 10c]
  Ki: 10 to 30 nM

## CC(C)(C)OC(=O)N1CCC(CN(c2nc3cc(Cl)c(Cl)cc3[nH]2)[C@@H]2CC[C@]3(c4cccc(C#N)c4)CC3C2)CC1 (some centres unmarked) [Example 21]
  Ki: > 100 nM

## CN1CCN(CCCN(c2nc3cc(Cl)c(Cl)cc3[nH]2)[C@@H]2CC[C@]3(c4cccc(CN5CCOCC5)c4)C[C@@H]3C2)CC1 [Example 10b]
  Ki: 10 to 30 nM

## CS(=O)(=O)N1CCC(CN(c2nc3cc(F)c(Cl)cc3[nH]2)[C@@H]2CC[C@]3(c4cccc(C#N)c4)C[C@@H]3C2)CC1 [Example 16c]
  Ki: < 10 nM

## CN1CCN(CCCN(c2nc3cc(F)c(Cl)cc3[nH]2)[C@@H]2CC[C@]3(c4cccc(Br)c4)CC23)CC1 (some centres unmarked) [Example 30d]
  Ki: 10 to 30 nM

## CS(=O)(=O)N1CCC(CN(c2nc3cc(F)c(F)cc3[nH]2)[C@@H]2CC[C@]3(c4cccc(C#N)c4)C[C@@H]3C2)CC1 [Example 16b]
  Ki: 10 to 30 nM

## CN(C)Cc1cccc([C@]23CC[C@@H](N(CCCN4CCN(C)CC4)c4nc5cc(F)c(F)cc5[nH]4)C[C@H]2C3)c1 [Example 10d]
  Ki: > 100 nM

## CN1CCN(CCCN(c2nc3cc(F)c(F)cc3[nH]2)[C@@H]2CC[C@]3(c4cccc(CN5CCOCC5)c4)C[C@@H]3C2)CC1 [Example 10e]
  Ki: 10 to 30 nM

## CN1CCN(CCCN(c2nc3cc(F)c(F)cc3[nH]2)[C@@H]2CC[C@]3(c4cccc(C#N)c4)C[C@H]23)CC1 [Example 30c]
  Ki: 10 to 30 nM

## CN1CCN(CCCN(c2nc3cc(Cl)c(F)cc3[nH]2)[C@@H]2CC[C@]3(c4cccc(C#N)c4)C[C@H]23)CC1 [Example 30b]
  Ki: < 10 nM

## CN1CCN(CCCN(c2nc3cc(F)c(F)cc3[nH]2)[C@@H]2CC[C@]3(c4cccc(C=O)c4)C[C@@H]3C2)CC1 [Example 9b]
  Ki: 10 to 30 nM

## CN1CCN(CCCN(c2nc3cc(Cl)c(Cl)cc3[nH]2)[C@@H]2CC[C@]3(c4cccc(C=O)c4)C[C@@H]3C2)CC1 [Example 9a]
  Ki: 10 to 30 nM

## CN1CCN(CCCN(c2nc3cc(F)c(C(F)(F)F)cc3[nH]2)[C@@H]2CC[C@]3(c4ccc(C#N)cc4)CC23)CC1 (some centres unmarked) [Example 35a]
  Ki: < 10 nM

## CN(C)Cc1cccc([C@]23CC[C@@H](N(CCCN4CCN(C)CC4)c4nc5cc(Cl)c(Cl)cc5[nH]4)C[C@H]2C3)c1 [Example 10a]
  Ki: < 10 nM

— patent US7030113B2, “Aminobenzimidazoles as selective melanin concentrating hormone receptor antagonists for the treatment of obesity and related disorders” (Schering Corporation, priority 2003, dated 2006)
